Reference: patent publication US6573275B1, “Bicyclic amines” (Syngenta Limited, priority 1995, dated 2003)

The compounds below were run on peach aphid (Myzus persicae) (assay: Insecticidal test against peach aphid, infested Chinese cabbage leaves sprayed). Conditions: peach aphid (Myzus persicae) on Chinese cabbage leaves, sprayed with 500 ppm composition unless otherwise stated, mortality assessed after 3 days.
Assay type: in vivo
Procedure, shortened: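 Aphid-infested Chinese cabbage leaves were sprayed with compound at 500 ppm unless otherwise stated, formulated in acetone/ethanol diluted with water containing 0.05% Synperonic NP8. Mortality was assessed after 3 days.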

SMILES | Score (grading of mortality)
N#CC1(c2cncc(Cl)c2)CC2CCC(C1)N2CC(F)F (stereo not drawn) [Compound 142, exo-3-(5-chloropyrid-3-yl)-endo-3-cyano-8-(2,2-difluoroethyl)-8-azabicyclo[3.2.1]octane] | A (A indicates 80-100% mortality)
N#CC1(c2cncc(Br)c2)CC2CCC(C1)N2CC(F)(F)F (stereo not shown) [Compound 143] | A (A indicates 80-100% mortality)
N#CC1(c2cncc(Cl)c2)CC2CCC(C1)N2C(=O)F (stereo not drawn) [Compound 144, exo-3-(5-chloropyrid-3-yl)-endo-3-cyano-8-(fluorocarbonyl)-8-azabicyclo[3.2.1]octane] | A (A indicates 80-100% mortality)
CN(C(=O)N1C2CCC1CC(C#N)(c1cncc(Cl)c1)C2)c1ccccc1 (stereo not shown) [Compound 145] | A (A indicates 80-100% mortality)
CC(C)(C)NC(=O)N1C2CCC1CC(C#N)(c1cncc(Cl)c1)C2 (stereo not drawn) [Compound 146, exo-3-(5-chloropyrid-3-yl)-endo-3-cyano-8-(tert-butylcarbamyl)-8-azabicyclo[3.2.1]octane] | A (A indicates 80-100% mortality)
CN1C2CCC1CC(C#N)(c1cncc(I)c1)C2 (stereo not drawn) [Compound 147, exo-3-(5-iodopyrid-3-yl)-endo-3-cyano-8-methyl-8-azabicyclo[3.2.1]octane] | A (A indicates 80-100% mortality)
CN1C2CCC1CC(C#N)(c1cncc(O)c1)C2 (stereo not drawn) [Compound 148, exo-3-(5-hydroxypyrid-3-yl)-endo-3-cyano-8-methyl-8-azabicyclo[3.2.1]octane] | B (B indicates 40-79% mortality)
N#CC1(c2cncc(Cl)c2)CC2CCC(C1)N2C(=O)N1CCOCC1 (stereo not shown) [Compound 149] | A (A indicates 80-100% mortality)
CC(C)N(C(=O)N1C2CCC1CC(C#N)(c1cncc(Cl)c1)C2)C(C)C (stereo not drawn) [Compound 150, exo-3-(5-chloropyrid-3-yl)-endo-3-cyano-8-(diisopropylcarbamyl)-8-azabicyclo[3.2.1]octane] | A (A indicates 80-100% mortality)
N#CC1(c2cncc(Cl)c2)CC2CCC(C1)N2c1c(F)c(F)c(F)c(F)c1F (stereo not drawn) [Compound 151, exo-3-(5-chloropyrid-3-yl)-endo-3-cyano-8-pentafluorophenyl-8-azabicyclo[3.2.1]octane] | A (A indicates 80-100% mortality)
N#CC1(c2cncc(Cl)c2)CC2CCC(C1)N2c1cc(Cl)ncn1 (stereo not shown) [Compound 152] | A (A indicates 80-100% mortality)
CC(=O)Nc1nc(CN2C3CCC2CC(C#N)(c2cncc(Cl)c2)C3)cs1 (stereo not shown) [Compound 153] | A (A indicates 80-100% mortality)
N#CC1(c2cncc(Cl)c2)CC2CCC(C1)N2C(=O)Nc1ccc(F)c(Cl)c1 (stereo not shown) [Compound 154] | B (B indicates 40-79% mortality)
N#CC1(c2cncc(Cl)c2)CC2CCC(C1)N2c1cncc(Cl)c1 (stereo not shown) [Compound 155] | A (A indicates 80-100% mortality)
N#CC1(c2cncc(Cl)c2)CC2CCC(C1)N2C(=O)c1cnccc1C(F)(F)F (stereo not shown) [Compound 157] | C (C indicates less than 40% mortality)
N#CC1(c2cncc(Cl)c2)CC2CCC(C1)N2Cc1nnsc1Cl (stereo not drawn) [Compound 158, exo-3-(5-chloropyrid-3-yl)-endo-3-cyano-8-((5-chloro-1,2,3-thiadiazol-4-yl)methyl)-8-azabicyclo[3.2.1]octane] | A (A indicates 80-100% mortality)
CC(C=O)(c1ccccc1)N1C2CCC1CC(C#N)(c1cncc(Cl)c1)C2 (stereo not drawn) [Compound 159, exo-3-(5-chloropyrid-3-yl)-endo-3-cyano-8-(2-phenyl-3-oxo-prop-2-yl)-8-azabicyclo[3.2.1]octane] | A (A indicates 80-100% mortality)
N#CC1(c2cncc(Cl)c2)CC2CCC(C1)N2CCCC(F)(F)F (stereo not shown) [Compound 160] | A (A indicates 80-100% mortality)
COc1cncc(C2(C#N)CC3CCC(C2)N3CC(F)(F)F)c1 (stereo not shown) [Compound 161] | A (A indicates 80-100% mortality)
CCOC(=O)c1ccc(N2C3CCC2CC(C#N)(c2cncc(Cl)c2)C3)cc1 (stereo not shown) [Compound 162] | C (C indicates less than 40% mortality)
N#CC1(c2cnc(F)c(Cl)c2)CC2CCC(C1)N2CC(F)(F)F (stereo not shown) [Compound 163] | C (C indicates less than 40% mortality)
CC(=O)Nc1cncc(C2(C#N)CC3CCC(C2)N3C)c1 (stereo not drawn) [Compound 165, exo-3-(5-acetylamidopyrid-3-yl)-endo-3-cyano-8-methyl-8-azabicyclo[3.2.1]octane] | A (A indicates 80-100% mortality)
COc1cncc(C2(C#N)CC3CCC(C2)N3CC#N)c1 (stereo not shown) [Compound 166] | A (A indicates 80-100% mortality)

SMILES | Score (grading of mortality)
N#CC1(c2cncc(Cl)c2)CC2CCC(C1)N2c1nc(CCl)ns1 (stereo not shown) [Compound 167] | A (A indicates 80-100% mortality)
N#CC1(c2cncc(Cl)c2)CC2CCC(C1)N2c1ncc(Cl)s1 (stereo not drawn) [Compound 168, exo-3-(5-chloropyrid-3-yl)-endo-3-cyano-8-(5-chlorothiazol-2-yl)-8-azabicyclo[3.2.1]octane] | A (A indicates 80-100% mortality)
N#CN1C2CCC1CC(C#N)(c1cncc(Cl)c1)C2 (stereo not drawn) [Compound 169, exo-3-(5-chloropyrid-3-yl)-endo-3-cyano-8-cyano-8-azabicyclo[3.2.1]octane] | A (A indicates 80-100% mortality)
N#CC1(c2cncc(Cl)c2)CC2CCC(C1)N2c1ccc(C(=O)O)cc1 (stereo not shown) [Compound 170] | B (B indicates 40-79% mortality)
C=COC(=O)N1C2CCC1CC(C#N)(c1cncc(OC)c1)C2 (stereo not shown) [Compound 171] | A (A indicates 80-100% mortality)
COc1cncc(C2(C#N)CC3CCC(C2)N3)c1 (stereo not shown) [Compound 172] | A (A indicates 80-100% mortality)
N#CC1(c2cncc(Cl)c2)CC2CCC(C1)N2c1ccc(Cl)cc1 (stereo not shown) [Compound 173] | A (A indicates 80-100% mortality)
CN1C2CCC1CC(C#N)(c1cncc(C(F)(F)F)c1)C2 (stereo not drawn) [Compound 174, exo-3-(5-trifluoromethylpyrid-3-yl)-endo-3-cyano-8-methyl-8-azabicyclo[3.2.1]octane] | A (A indicates 80-100% mortality)
C=CC(C)(c1ccccc1)N1C2CCC1CC(C#N)(c1cncc(Cl)c1)C2 (stereo not drawn) [Compound 175, exo-3-(5-chloropyrid-3-yl)-endo-3-cyano-8-(2-phenylbut-3-en-2-yl)-8-azabicyclo[3.2.1]octane] | A (A indicates 80-100% mortality)
CC(CO)(c1ccccc1)N1C2CCC1CC(C#N)(c1cncc(Cl)c1)C2 (stereo not drawn) [Compound 176, exo-3-(5-chloropyrid-3-yl)-endo-3-cyano-8-(2-phenyl-3-hydroxyprop-2-yl)-8-azabicyclo[3.2.1]octane] | A (A indicates 80-100% mortality)
N#CC1(c2cncc(C(F)(F)F)c2)CC2CCC(C1)N2C=O (stereo not shown) [Compound 177] | A (A indicates 80-100% mortality)
CC(=O)OCC(C)(c1ccccc1)N1C2CCC1CC(C#N)(c1cncc(Cl)c1)C2 (stereo not drawn) [Compound 178, exo-3-(5-chloropyrid-3-yl)-endo-3-cyano-8-(2-phenyl-3-acetoxyprop-2-yl)-8-azabicyclo[3.2.1]octane] | A (A indicates 80-100% mortality)
CC(F)(CN1C2CCC1CC(C#N)(c1cncc(Cl)c1)C2)c1ccccc1 (stereo not drawn) [Compound 179, exo-3-(5-chloropyrid-3-yl)-endo-3-cyano-8-(2-fluoro-2-phenylprop-1-yl)-8-azabicyclo[3.2.1]octane] | A (A indicates 80-100% mortality)
CC(C)CC(C)(C)CCN1C2CCC1CC(C#N)(c1cncc(Cl)c1)C2 (stereo not shown) [Compound 180] | A (A indicates 80-100% mortality)
C=COC(=O)N1C2CCC1CC(C#N)(c1cncc(Br)c1)C2 (stereo not shown) [Compound 181] | A (A indicates 80-100% mortality)
N#CC1(c2cncc(Cl)c2)CC2CCC(C1)N2c1ncccn1 (stereo not shown) [Compound 182] | A (A indicates 80-100% mortality)
C=COC(=O)N1C2CCC1CC(C#N)(c1cncc(C(F)(F)F)c1)C2 (stereo not shown) [Compound 183] | A (A indicates 80-100% mortality)
N#CC1(c2cncc(C(F)(F)F)c2)CC2CCC(C1)N2 (stereo not shown) [Compound 184] | A (A indicates 80-100% mortality)
C=COC(=O)N1C2CCC1CC(C#N)(c1cccnc1)C2 (stereo not drawn) [Compound 185, exo-3-(Pyrid-3-yl)-endo-3-cyano-8-(vinyloxycarbonyl)-8-azabicyclo[3.2.1]octane] | A (A indicates 80-100% mortality)
N#CC1(c2cncc(C(F)(F)F)c2)CC2CCC(C1)N2Cc1cccc(Cl)c1 (stereo not shown) [Compound 186] | A (A indicates 80-100% mortality)
N#CC1(c2cncc(Cl)c2)CC2CCC(C1)N2c1ccnc(Cl)n1 (stereo not shown) [Compound 187] | C (C indicates less than 40% mortality)
N#CC1(c2cncc(Cl)c2)CC2CCC(C1)N2c1ccc(C(F)(F)F)cc1 (stereo not shown) [Compound 188] | A (A indicates 80-100% mortality)
CN1C2CCC1CC(C#N)(c1cncc(-n3cccc3)c1)C2 (stereo not drawn) [Compound 189, exo-3-(5-(pyrrol-1-yl)pyrid-3-yl)-endo-3-cyano-8-methyl-8-azabicyclo[3.2.1]octane] | A (A indicates 80-100% mortality)
